Experimental data taken from patent publication US6599925B2 (Wyeth, priority 2001, dated 2003).
Structures can show the parent of a compound that is named as a salt.

Assays:
human PAI-1 = human PAI-1 (Homo sapiens, UniProt P05121); test: Assay for determining IC50 of inhibition of PAI-1 (Antibody Assay); type: binding; details: footnote a: determined by the Antibody Assay; active PAI-1 bound to tPA-coated plate, pH 7.5
Description: Assay for Determining IC50 of Inhibition of PAI-1
This assay is based upon the non-SDS dissociable interaction between tPA and active PAI-1. Assay plates are initially coated with human tPA (10 μg/ml). Test compounds are dissolved in DMSO at 10 mM, then diluted with physiologic buffer (pH 7.5) to a final concentration of 1-50 μM. The test compounds are incubated with human PAI-1 (50 ng/ml) for 15 minutes at room temperature. The tPA-coated plate is washed with a solution of 0.05% Tween 20 and 0.1% BSA, then the plate is blocked with a solution of 3% BSA. An aliquot of the test compound/PAI-1 solution is then added to the tPA-coated plate, incubated at room temperature for 1 hour, and washed. Active PAI-1 bound to the plate is assessed by adding an aliquot of a 1:1000 dilution of the 33B8 monoclonal antibody against human PAI-1, and incubating the plate at room temperature for 1 hour (Molecular Innovations, Royal Oak, Mich.). The plate is again washed, and a solution of goat anti-mouse IgG-alkaline phosphatase conjugate is added at a 1:50,000 dilution in goat serum. The plate is incubated 30 minutes at room temperature, washed, and a solution of alkaline phosphatase substrate is added. The plate is incubated 45 minutes at room temperature, and color development is determined at OD405nm. The quantitation of active PAI-1 bound to tPA at varying concentrations of the test compound is used to determine the IC50. Results are analyzed using a logarithmic best-fit equation. The assay sensitivity is 5 ng/ml of human PAI-1 as determined from a standard curve ranging from 0-100 ng/ml.

[1] = molecular target: T1, recombinant human plasminogen activator inhibitor-1 (PAI-1) (Homo sapiens, UniProt P05121); test: Primary Screen for the PAI-1 Inhibition (chromogenic tPA assay); type: biochemical; details: for inhibition at 25 µM: 25 μM test compound; for IC50: footnote b: determined by a modification of the Primary Screen for PAI-1 Inhibition
T1 construct: purchased Molecular Innovations, Royal Oak, Mich
T1 sequence (P05121 24-402): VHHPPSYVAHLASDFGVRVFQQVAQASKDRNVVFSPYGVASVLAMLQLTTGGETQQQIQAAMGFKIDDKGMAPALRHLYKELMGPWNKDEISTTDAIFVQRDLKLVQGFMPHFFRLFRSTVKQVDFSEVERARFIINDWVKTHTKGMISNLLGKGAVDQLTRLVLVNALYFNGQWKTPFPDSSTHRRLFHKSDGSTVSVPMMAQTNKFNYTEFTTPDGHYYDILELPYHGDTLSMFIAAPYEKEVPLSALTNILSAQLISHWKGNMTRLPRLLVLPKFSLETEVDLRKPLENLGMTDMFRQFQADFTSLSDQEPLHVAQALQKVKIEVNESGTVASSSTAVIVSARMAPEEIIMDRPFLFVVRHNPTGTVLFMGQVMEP
Description: Primary Screen for the PAI-1 Inhibition
Test compounds are dissolved in DMSO at a final concentration of 10 mM, then diluted 100×in physiologic buffer. The inhibitory assay is initiated by the addition of the test compound (1-100 μM final concentration, maximum DMSO concentration of 0.2%) in a pH 6.6 buffer containing 140 nM recombinant human plasminogen activator inhibitor-1 (PAI-1; Molecular Innovations, Royal Oak, Mich.). Following a 1 hour incubation at room temperature, 70 nM of recombinant human tissue plasminogen activator (tPA) is added, and the combination of the test compound, PAI-1 and tPA is incubated for an additional 30 minutes. Following the second incubation, Spectrozyme-tPA (American Diagnostica, Greenwich, Conn.), a chromogenic substrate for tPA, is added and absorbance read at 405 nm at 0 and 60 minutes. Relative PAI-1 inhibition is equal to the residual tPA activity in the presence of the test compounds and PAI-1. Control treatments include the complete inhibition of tPA by PAI-1 at the molar ratio employed (2:1), and the absence of any effect of the test compound on tPA alone.

Sequence of human PAI-1 (P05121 24-402): as above

| SMILES | melting point | IC50 (human PAI-1) [µM] | inhibition at 25 µM [1] [%] | IC50 [1] [µM] |
| --- | --- | --- | --- | --- |
| CCCCC(=O)c1c(-c2ccc3cc(OC(Cc4ccccc4)C(=O)O)ccc3c2)oc2ccccc12 (centres unmarked) [Example 4, 2-{[6-(3-Pentanoyl-1-benzofuran-2-yl)-2-naphthyl]oxy}-3-phenylpropanoic acid] | 144 to 145 °C | 16.6 |  |  |
| CC(C)(C)CC(=O)c1c(-c2ccc3cc(OCC(=O)O)ccc3c2)oc2ccccc12 [Example 6, 2-({6-[3-(3,3-Dimethylbutanoyl)-1-benzofuran-2-yl]-2-naphthyl}oxy)acetic acid] | 207 to 209 °C | 8.7 |  |  |
| CC(C)CC(=O)c1c(-c2ccc3c(Br)c(OCc4nnn[nH]4)ccc3c2)oc2ccccc12 [Example 9, 1-{2-[5-Bromo-6-(1H-1,2,3,4-tetraazol-5-ylmethoxy)-2-naphthyl]-1-benzofuran-3-yl}-3-methyl-1-butanone] | 176 to 177 °C | 18.7 |  |  |
| O=C(CC1CCCC1)c1c(-c2ccc3c(Br)c(OCc4nnn[nH]4)ccc3c2)oc2ccccc12 [Example 13, 1-{2-[5-Bromo-6-(1H-1,2,3,4-tetraazol-5-ylmethoxy)-2-naphthyl]-1-benzofuran-3-yl}-2-cyclopentyl-1-ethanone] | 186 to 187 °C | 10.1 |  |  |
| CCCCC(=O)c1c(-c2ccc3c(-c4ccccc4)c(OCC(=O)[O-])ccc3c2)oc2ccccc12.[Na+] [Example 14, 2-{[6-(3-Pentanoyl-1-benzofuran-2-yl)-1-phenyl-2-naphthyl]oxy}acetic acid, sodium salt] | 272 to 273 °C (dec.) | 2.7 |  |  |
| CCCCC(=O)c1c(-c2ccc3c(-c4ccc(C(F)(F)F)cc4)c(OCC(=O)O)ccc3c2)oc2ccccc12 [Example 15, 2-({6-(3-Pentanoyl-1-benzofuran-2-yl)-1-[4-(trifluoromethyl)phenyl]-2-naphthyl}oxy) acetic acid, sodium salt] |  | 8.2 |  |  |
| CCCCC(=O)c1c(-c2ccc3c(-c4ccccc4)c(OCc4nnn[nH]4)ccc3c2)oc2ccccc12 [Example 16, 1-{2-[5-Phenyl-6-(1H1,2,3,4-tetraazol-5-ylmethoxy)-2-naphthyl]-1-benzofuran-3-yl}-1-pentanone] | 160 to 164 °C | 10 |  |  |
| O=C(O)COc1ccc2cc(-c3oc4ccccc4c3C(=O)CC3CCCC3)ccc2c1Br [Example 17, 2-({1-Bromo-6-[3-(2-cyclopentylacetyl)-1-benzofuran-2-yl]-2-naphthyl}oxy)acetic acid] | 150 to 152 °C | 2.7 |  |  |
| CCCCC(=O)c1c(-c2ccc3c(C)c(OCc4nnn[nH]4)ccc3c2)oc2ccccc12 [Example 20, 1-{2-[5-Methyl-6-(1H-1,2,3,4-tetraazol-5-ylmethoxy)-2-naphthyl]-1-benzofuran-3-yl}-1-pentanone] | 162 to 164 °C | 24.2 |  |  |
| CCCCC(=O)c1c(-c2ccc3c(C)c(OCC(=O)O)ccc3c2)oc2ccccc12 [Example 22, 2-{[1-Methyl-6-(3-pentanoyl-1-benzofuran-2-yl)-2-naphthyl]oxy}acetic acid] | 153 to 155 °C | 13.3 |  |  |
| CCCCC(=O)c1c(-c2ccc3c(C)c(OC(Cc4ccccc4)C(=O)[O-])ccc3c2)oc2ccccc12.[Na+] (centres unmarked) [Example 23, 2-{[1-Methyl-6-(3-pentanoyl-1-benzofuran-2-yl)-2-naphthyl]oxy}-3-phenylpropanoic acid, sodium salt] | 221 to 222 °C | 12.4 |  |  |
| CCCCC(=O)c1c(-c2ccc3c(Cl)c(OCC(=O)O)ccc3c2)oc2ccccc12 [Example 24, 2-{[1-Chloro-6-(3-pentanoyl-1-benzofuran-2-yl)-2-naphthyl]oxy}acetic acid] | 142 to 143 °C | 11 |  |  |
| CCCCC(=O)c1c(-c2ccc3c(Cl)c(OCc4nnn[nH]4)ccc3c2)oc2ccccc12 [Example 25, 1-{2-[5-Chloro-6-(1H-1,2,3,4-tetraazol-5-ylmethoxy)-2-naphthyl]-1-benzofuran-3-yl}-1-pentanone] | 168 to 169 °C | 14 |  |  |

Other lines, results leading:

| melting point | IC50 (human PAI-1) [µM] | inhibition at 25 µM [1] [%] | IC50 [1] [µM] | SMILES |
| --- | --- | --- | --- | --- |
| 178 to 181 °C |  | 49 |  | O=C(O)COc1ccc2cc(-c3oc4ccccc4c3C(=O)c3ccccc3)ccc2c1 [Example 26, {[6-(3-benzoyl-1-benzofuran-2-yl)-2-naphthyl]oxy}acetic acid] |
| > 183 °C (dec.) |  | 35 |  | O=C(c1ccccc1)c1c(-c2ccc3c(Br)c(OCc4nnn[nH]4)ccc3c2)oc2ccccc12 [Example 27, {2-[5-Bromo-6-(1H-tetraazol-5-ylmethoxy)-2-naphthyl]-1-benzofuran-3-yl}(phenyl) methanone] |
| 206 to 209 °C |  | 56 |  | O=C(O)C(Cc1ccccc1)Oc1ccc2cc(-c3oc4ccccc4c3Br)ccc2c1Br (centres unmarked) [Example 28, 2-{[1-Bromo-6-(3-bromo-1-benzofuran-2-yl)-2-naphthyl]oxy}-3-phenylpropanoic acid] |
| 202 to 203 °C | 3.85 |  |  | O=C(O)COc1ccc2cc(-c3oc4ccccc4c3-c3ccccc3)ccc2c1-c1ccccc1 [Example 29, {[1-Phenyl-6-(3-phenyl-1-benzofuran-2-yl)-2-naphthyl]oxy}acetic acid] |
| 133 to 135 °C |  | 46 |  | CCCCC(=O)c1c(-c2ccc3c(Br)c(OCc4nnn[nH]4)ccc3c2)oc2ccc(Cl)cc12 [Example 30, 1-{2-[5-Bromo-6-(1H-tetrazol-5-ylmethoxy)-naphthalen-2-yl]-5-chloro-benzofuran-3-yl}-pentan-1-one] |
| 130 to 132 °C |  |  | 17.1 | CCCCC(=O)c1c(-c2ccc3c(Br)c(OCC(=O)O)ccc3c2)oc2ccc(Cl)cc12 [Example 31, [1-Bromo-6-(5-chloro-3-pentanoyl-benzofuran-2-yl)-naphthalen-2-yloxy]-acetic acid] |
| 178 to 180 °C |  | 39 |  | CCCCC(=O)c1c(-c2ccc3cc(OCc4nnn[nH]4)ccc3c2)oc2ccc(Cl)cc12 [Example 32, 1-{5-Chloro-2-[6-(1H-tetrazol-5-ylmethoxy)-naphthalen-2-yl]-benzofuran-3-yl}-pentan-1-one] |
| 158 to 160 °C |  |  | 10.4 | CCCCC(=O)c1c(-c2ccc3cc(OCC(=O)O)ccc3c2)oc2ccc(Cl)cc12 [Example 33, [6-(5-Chloro-3-pentanoyl-benzofuran-2-yl)-naphthalen-2-yloxy]-acetic acid] |
| 178 to 180 °C | 8.17 |  |  | CCCCCc1c(-c2ccc3cc(OCc4nnn[nH]4)ccc3c2)oc2ccccc12 [Example 34, 5-[6-(3-Pentyl-benzofuran-2-yl)-naphthalen-2-yloxymethyl]-1H-tetrazole] |
| 163 to 165 °C |  |  | 4.39 | CCCCCc1c(-c2ccc3cc(OCC(=O)O)ccc3c2)oc2ccccc12 [Example 35, [6-(3-Pentyl-benzofuran-2-yl)-naphthalen-2-yloxy]-acetic acid] |
| 159 to 161 °C | 6.54 |  |  | CCCCCc1c(-c2ccc3c(Br)c(OCC(=O)O)ccc3c2)oc2ccccc12 [Example 36, [1-Bromo-6-(3-pentyl-benzofuran-2-yl)-naphthalen-2-yloxy]-acetic acid] |
